# Laboratory results from paper PMC7864049, “Co-crystal structures of HIV TAR RNA bound to lab-evolved proteins show key roles for arginine relevant to the design of cyclic peptide TAR inhibitors” (The Journal of Biological Chemistry, 2021).
# Entries after “also recorded” stand apart in the source; their conditions may differ. Read-outs that look alike come from different tables or passages of the source.
# Key:
# [1] = tested on: Tat ARM binding to HIV-1 TAR RNA
# [2] = target: HIV-1 TAR RNA (27-mer); assay type: binding
# [3] = tested on: Tat ARM binding to HIV-1 TAR RNA; remark: listed apart in the source
# [4] = tested on: HIV TAR RNA; conditions: cited from earlier work
# Excerpt: (§1) The precise role of arginine in Tat-mediated RNA recognition came into focus only recently based on the high-resolution NMR analysis of an HIV Tat-ARM in complex with human 7SK RNA and HIV TAR RNA ([19]). When bound to host 7SK, Tat adopts a bent conformation wherein a cluster of three arginines specifically recognizes the Hoogsteen edges of guanine nucleobases. Conversely, the Tat-ARM adopts a more linear conformation that uses two arginines to recognize the Hoogsteen edges of TAR nucleobases. Remarkably, these different modes of base recognition use distinctive arginines from the same Tat pe ...
# [5] = tested on: human 7SK RNA; conditions: cited from earlier work
# Excerpt: as §1
substance,measurement,setting,value
"Ac-GISYGRKKRRQRRRAHQ-NH2 [Tat ARM, reference compound]",Tat binding mode in presence of TB-LP-6.9,[1],non- identical two- site binding
same,Kd,[2],166 ± 21 nM
same,ΔG°,[2],-9.2 ± 0.1 kcal/mol
same,ΔH°,[2],−4.5 ± 0.6 kca/mol
same,−TΔS°,[2],-4.8 ± 0.7 kcal/mol
same,Kd,[2]; 20 °C,135 ± 31 nM
same,heats of binding of Tat ARM,[3],no significant heats of binding; also recorded: no appreciable heats of binding
same,affinity,[4],nanomolar affinity
same,affinity,[5],nanomolar affinity
